Laboratory results: patent publication US20240116985A1, “STAPLED PEPTIDES AND METHODS THEREOF” (priority 2020, published 2024)
Values after ≈ are worked out from the molar mass of the structure shown. Where two headings read alike, the source gives them in different places.

Columns and labels:
[1] = target: T1, beta-catenin/TCF4 engagement (Homo sapiens, UniProt P35222); assay: Nano-BRET target engagement assay (B-cat-Halo & TCF4-Luc in HEK293 cells); type: cell-based
T1 construct: expressed in transfected cells; host or cells: HEK293
T1 sequence (P35222 1-781): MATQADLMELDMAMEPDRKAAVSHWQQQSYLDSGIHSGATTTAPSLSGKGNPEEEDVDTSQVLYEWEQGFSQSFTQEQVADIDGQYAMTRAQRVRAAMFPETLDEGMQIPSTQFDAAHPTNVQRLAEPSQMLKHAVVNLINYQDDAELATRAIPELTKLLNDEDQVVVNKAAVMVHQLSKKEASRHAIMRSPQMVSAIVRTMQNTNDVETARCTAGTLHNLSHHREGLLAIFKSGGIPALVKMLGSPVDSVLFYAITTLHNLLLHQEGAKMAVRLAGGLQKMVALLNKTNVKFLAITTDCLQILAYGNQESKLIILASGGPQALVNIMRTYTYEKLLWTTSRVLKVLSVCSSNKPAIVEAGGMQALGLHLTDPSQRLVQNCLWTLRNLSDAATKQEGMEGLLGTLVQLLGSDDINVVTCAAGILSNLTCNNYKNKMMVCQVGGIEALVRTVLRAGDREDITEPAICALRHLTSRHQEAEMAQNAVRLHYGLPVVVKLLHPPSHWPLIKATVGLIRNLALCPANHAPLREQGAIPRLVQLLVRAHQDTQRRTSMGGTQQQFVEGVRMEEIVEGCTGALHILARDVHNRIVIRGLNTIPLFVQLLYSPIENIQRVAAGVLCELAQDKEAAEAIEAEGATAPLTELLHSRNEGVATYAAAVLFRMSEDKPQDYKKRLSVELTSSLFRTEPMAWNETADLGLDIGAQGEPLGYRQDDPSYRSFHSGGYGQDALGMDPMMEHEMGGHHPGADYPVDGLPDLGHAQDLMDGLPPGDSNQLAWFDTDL

Solubility in PBS = type: physicochemical
Outline: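 Solubility is derived from HPLC peak areas: the ratio of the PBS supernatant peak to a 50 μM DMSO peptide peak, times 50 uM.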

CHI Log D procedure = type: physicochemical; conditions: for chromatographic logD: pH 7.4, CHI Log D; for CHI Log D: pH 7.4
[2] = target: T2, full-length beta-Catenin (Uniprot ID P35222) (Homo sapiens, UniProt P35222); assay: Fluorescence polarization IC50 (beta-catenin / 5FAM-TCF4 10-53 competition); type: binding
T2 construct: 10 nM full-length beta-Catenin (Uniprot ID P35222)
T2 sequence (P35222 1-781): T1 sequence (P35222 1-781)

[3] = absolute IC50, read-out: NanoBRET Abs IC50
[4] = fluorescence polarization, read-out: beta-Catenin FP IC50

Compound | IC50 [1, 3] [nM] | Solubility (Solubility in PBS; Solubility (uM)) [µM] | chromatographic logD (CHI Log D procedure) | IC50 ([2]; read-out: beta-Catenin FP IC50) [nM] | IC50 ([1]; read-out: NanoBRET Abs IC50) [nM] | Solubility (Solubility in PBS) [µM] | CHI Log D (CHI Log D procedure) | IC50 [2, 4] [nM] | IC50 ([2]; read-out: FP EC50) [nM] | solubility at 15 min (Solubility in PBS; Solubility (uM)) [µM] | inhibition at 10 µM ([1]; HEK293, @ 10 uM, read-out: NanoBRET % inh @ 10 uM) [%] | IC50 ([1]; read-out: NanoBRET IC50) [nM]
CC(=O)N1CCC[C@]12CC=CCCCC1(CCCC=CCCCOC(=O)N3CC[C@@](C(=O)N[C@@H](Cc4ccccc4Cl)C(=O)N[C@@H](Cc4csc5ccccc45)C(=O)N[C@@H](CCC(N)=O)C(N)=O)(C3)NC(=O)[C@H](CO)NC(=O)[C@H](Cc3ccccc3)NC(=O)[C@H](C)NC(=O)[C@H](C)NC(=O)[C@H](CC(=O)O)NC(=O)[C@H](CC(=O)O)NC1=O)NC(=O)[C@H](Cc1ccccc1)NC(=O)[C@H](CC(=O)O)NC2=O (stereo partly drawn) [I-1045, Ac-PL3-Asp-Phe-B5-Asp-Asp-Ala-Ala-Phe-Ser-PyrS2-2C1F-BztA-Gln-NH2] | 23900 | 49 (≈ 95 µg/mL) | 2.12 | 5 | – | – | – | – | – | – | – | –
CC(=O)N1CCC[C@]12CC=CCCCC1(CCCC=CCCCCOC(=O)N3CC[C@@](C(=O)N[C@@H](Cc4ccsc4)C(=O)N[C@@H](Cc4csc5ccccc45)C(=O)N[C@@H](CC(N)=O)C(=O)N[C@@H](C)C(N)=O)(C3)NC(=O)[C@H](CC(N)=O)NC(=O)[C@H](Cc3ccccc3)NC(=O)[C@H](C)NC(=O)[C@H](C)NC(=O)[C@H](CC(=O)O)NC(=O)[C@H](CC(=O)O)NC1=O)NC(=O)[C@H](CC(C)(C)C)NC(=O)[C@H](CC(=O)O)NC2=O (stereo partly drawn) [I-829, Ac-PL3-Asp-Npg-B5-Asp-Asp-Ala-Ala-Phe-Asn-PyrS3-3Thi-BztA-Asn-Ala-NH2] | – | 34 (≈ 67.6 µg/mL) | 2.08 | 15 | 30200 | – | – | – | – | – | – | –
CC(=O)N1CCC[C@]12CC=CCCCC1(CCCC=CCCCOC(=O)N3CC[C@@](C(=O)N[C@@H](Cc4ccsc4)C(=O)N[C@@H](Cc4csc5ccccc45)C(=O)N[C@@H](Cc4c[nH]cn4)C(N)=O)(C3)NC(=O)[C@H](CC(N)=O)NC(=O)[C@H](Cc3ccccc3)NC(=O)[C@H](C)NC(=O)[C@H](C)NC(=O)[C@H](CCC(N)=O)NC(=O)[C@H](CC(=O)O)NC1=O)NC(=O)[C@H](CC(C)(C)C)NC(=O)[C@H](CC(=O)O)NC2=O (stereo partly drawn) [I-839, Ac-PL3-Asp-Npg-B5-Asp-Gln-Ala-Ala-Phe-Asn-PyrS2-3Thi-BztA-His-NH2] | 41900 | 13 (≈ 25.2 µg/mL) | 2.27 | 7 | – | – | – | – | – | – | – | –
COCCOCCOCCOCCOCCOCCC(=O)NCCCC[C@H](NC(=O)[C@H](CCC(N)=O)NC(=O)[C@H](Cc1csc2ccccc12)NC(=O)[C@H](Cc1ccsc1)NC(=O)[C@]12CCN(C1)C(=O)OCCCC=CCCCC1(CCCC=CC[C@]3(CCCN3C(C)=O)C(=O)N[C@@H](CC(=O)O)C(=O)N[C@@H](CC(C)(C)C)C(=O)N1)C(=O)N[C@@H](CC(=O)O)C(=O)N[C@@H](CC(=O)O)C(=O)N[C@@H](C)C(=O)N[C@@H](C)C(=O)N[C@@H](Cc1ccccc1)C(=O)N[C@@H](CC(N)=O)C(=O)N2)C(N)=O (stereo partly drawn) [I-913, Ac-PL3-Asp-Npg-B5-Asp-Asp-Ala-Ala-Phe-Asn-PyrS2-3Thi-BztA-Gln-[mPEG6]Lys-NH2] | – | 49 (≈ 115 µg/mL) | 1.82 | 10 | 26400 | – | – | – | – | – | – | –
CC(=O)N1CCC[C@]12CC=CCCCC1(CCCC=CCCCCCC[C@@](C)(C(=O)N[C@@H](Cc3ccccc3)C(=O)N[C@@H](Cc3csc4ccccc34)C(=O)N[C@H](C(N)=O)[C@@H](C)O)NC(=O)[C@H](CC(N)=O)NC(=O)[C@H](Cc3ccccc3)NC(=O)[C@H](C)NC(=O)[C@H](C)NC(=O)[C@H](CCC(=O)O)NC(=O)[C@H](CC(=O)O)NC1=O)NC(=O)[C@H](CC(C)C)NC(=O)[C@H](CC(=O)O)NC2=O (stereo partly drawn) [I-749, Ac-PL3-Asp-Leu-B5-Asp-Glu-Ala-Ala-Phe-Asn-S8-Phe-BztA-Thr-NH2] | 9000 | – | – | – | – | 45 (≈ 82.9 µg/mL) | 2.472 | 40 | 40 | – | – | –
CC(=O)N1CCC[C@]12CC=CCCCC1(CCCC=CCCCOC(=O)N3CC[C@@](C(=O)N[C@@H](Cc4ccsc4)C(=O)N[C@@H](Cc4csc5ccccc45)C(=O)N[C@@H](CCC(N)=O)C(N)=O)(C3)NC(=O)[C@H](CC(N)=O)NC(=O)[C@H](Cc3ccccc3)NC(=O)[C@H](C)NC(=O)[C@H](C)NC(=O)[C@H](CCC(=O)O)NC(=O)[C@H](CC(=O)O)NC1=O)NC(=O)[C@H](CC(C)(C)C)NC(=O)[C@H](CC(=O)O)NC2=O (stereo partly drawn) [I-691, Ac-PL3-Asp-Npg-B5-Asp-Glu-Ala-Ala-Phe-Asn-PyrS2-3Thi-BztA-Gln-NH2] | 17000 | – | – | – | – | 45 (≈ 86.9 µg/mL) | 2.068 | 9 | 9 | – | – | –
COCCOCCOCCOCCOCCOCCOCCOCCC(=O)NCCCC[C@@H]1NC(=O)[C@H](C)NC(=O)[C@H](CC(=O)O)NC(=O)[C@H](CC(=O)O)NC(=O)C2(CCCC=CCCCOC(=O)N3CC[C@@](C(=O)N[C@@H](Cc4ccsc4)C(=O)N[C@@H](Cc4csc5ccccc45)C(=O)N[C@@H](CCC(N)=O)C(N)=O)(C3)NC(=O)[C@H](CC(N)=O)NC(=O)[C@H](Cc3ccccc3)NC1=O)CCCC=CC[C@]1(CCCN1C(C)=O)C(=O)N[C@@H](CC(=O)O)C(=O)N[C@@H](CC(C)(C)C)C(=O)N2 (stereo partly drawn) [I-896, Ac-PL3-Asp-Npg-B5-Asp-Asp-Ala-[mPEG8]Lys-Phe-Asn-PyrS2-3Thi-BztA-Gln-NH2] | – | – | 1.45 | 22 | > 20000 | – | – | – | – | 30 (≈ 71.1 µg/mL) | – | –
CC[C@@H]1NC(=O)[C@H](CC(=O)O)NC(=O)[C@]2(CC=CCCCC3(CCCC=CCCCCCC[C@@](C)(C(=O)N[C@@H](Cc4ccccc4)C(=O)N[C@@H](Cc4csc5ccccc45)C(=O)N[C@@H](Cc4c[nH]cn4)C(N)=O)NC(=O)[C@H](CCC(N)=O)NC(=O)[C@H](Cc4ccccc4)NC(=O)[C@H](C)NC(=O)[C@H](C)NC(=O)[C@H](CCC(=O)O)NC(=O)[C@H](CC(=O)O)NC3=O)NC1=O)CCCN2C(C)=O (stereo partly drawn) [I-571, Ac-PL3-Asp-Abu-B5-Asp-Glu-Ala-Ala-Phe-Gln-S8-Phe-BztA-His-NH2] | 15600 | – | – | – | – | 24 (≈ 44.7 µg/mL) | 2.245 | 32 | 32 | – | – | –
CC(=O)N1CCC[C@]12CC=CCCCC1(CCCC=CCCCCCC[C@@](C)(C(=O)N[C@@H](Cc3ccccc3)C(=O)N[C@@H](Cc3csc4ccccc34)C(=O)N[C@@H](CO)C(N)=O)NC(=O)[C@H](CC(N)=O)NC(=O)[C@H](Cc3ccccc3)NC(=O)[C@H](C)NC(=O)[C@H](C)NC(=O)[C@H](CCC(=O)O)NC(=O)[C@H](CC(=O)O)NC1=O)NC(=O)[C@H](CC(C)C)NC(=O)[C@H](CC(=O)O)NC2=O (stereo partly drawn) [I-751, Ac-PL3-Asp-Leu-B5-Asp-Glu-Ala-Ala-Phe-Asn-S8-Phe-BztA-Ser-NH2] | 7100 | – | – | – | – | 48 (≈ 87.7 µg/mL) | 2.513 | 29 | 29 | – | – | –
CC(=O)N1CCC[C@]12CC=CCCCC1(CCCC=CCCCOC(=O)N3CC[C@@](C(=O)N[C@@H](Cc4ccccc4Cl)C(=O)N[C@@H](Cc4csc5ccccc45)C(=O)N[C@@H](Cc4c[nH]cn4)C(N)=O)(C3)NC(=O)[C@H](CC(N)=O)NC(=O)[C@H](Cc3ccccc3)NC(=O)[C@H](C)NC(=O)[C@H](C)NC(=O)[C@H](CC(=O)O)NC(=O)[C@H](CC(=O)O)NC1=O)NC(=O)[C@H](CC(C)(C)C)NC(=O)[C@H](CC(=O)O)NC2=O (stereo partly drawn) [I-784, Ac-PL3-Asp-Npg-B5-Asp-Asp-Ala-Ala-Phe-Asn-PyrS2-2C1F-BztA-His-NH2] | – | 21 (≈ 41.1 µg/mL) | 2.29 | 6 | 14500 | – | – | – | – | – | 35.1 | 12100
CC(=O)N1CCC[C@]12CC=CCCCC1(CCCC=CCCCOC(=O)N3CC[C@@](C(=O)N[C@@H](Cc4ccccc4)C(=O)N[C@@H](Cc4csc5ccccc45)C(=O)N[C@@H](CO)C(N)=O)(C3)NC(=O)[C@H](CO)NC(=O)[C@H](Cc3ccccc3)NC(=O)[C@H](C)NC(=O)[C@H](C)NC(=O)[C@H](CC(=O)O)NC(=O)[C@H](CC(=O)O)NC1=O)NC(=O)[C@H](CC1CCCCC1)NC(=O)[C@H](CC(=O)O)NC2=O (stereo partly drawn) [I-1100, Ac-PL3-Asp-Cha-B5-Asp-Asp-Ala-Ala-Phe-Ser-PyrS2-Phe-BztA-Ser-NH2] | – | 46 (≈ 86 µg/mL) | 2.36 | 16 | 24300 | – | – | – | – | – | – | –
CC(=O)N1CCC[C@]12CC=CCCCC1(CCCC=CCCCOC(=O)N3CC[C@@](C(=O)N[C@@H](Cc4ccsc4)C(=O)N[C@@H](Cc4csc5ccccc45)C(N)=O)(C3)NC(=O)[C@H](CC(N)=O)NC(=O)[C@H](Cc3ccccc3)NC(=O)[C@H](C)NC(=O)[C@H](C)NC(=O)[C@H](CC(N)=O)NC(=O)[C@H](CC(=O)O)NC1=O)NC(=O)[C@H](CC(C)(C)C)NC(=O)[C@H](CC(=O)O)NC2=O (stereo partly drawn) [I-857, Ac-PL3-Asp-Npg-B5-Asp-Asn-Ala-Ala-Phe-Asn-PyrS2-3Thi-BztA-NH2] | – | – | 2.58 | 15 | 30600 | 10 (≈ 17.9 µg/mL) | – | – | – | – | – | 50600
